From patent US20110105389A1 (priority 2009, published 2011)

Assays:
[1] = target: T1, GHS-R1a receptor (HEK293 cells expressing GHS-R1a receptor) (Homo sapiens, UniProt Q92847); assay: Fluorescence functional assay (ghrelin receptor), Method B2, agonist and antagonist mode; type: cell-based; settings: functional activity as an antagonist at the ghrelin receptor, Methods B2 and B3
T1 construct: host or cells: HEK293
Summary of the method: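 Calcium flux read by ImageTrak epifluorescence in HEK293 cells stably expressing GHS-R1a, loaded 1 h at 37 °C with Calcium-3 dye; buffer HBSS/20 mM Hepes, pH 7.4, with probenecid and BSA. Agonists injected after 10 s baseline, read 50 s more; antagonists 3 min. Sigmoidal fits gave EC50 or IC50.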

[2] = Metabolic stability in human liver microsomes, Method B8; type: in vitro ADME; settings: human liver microsomes 0.8 mg/mL, 5 μM compound, 37° C.
Source text: B8. Metabolic Stability in Human Liver Microsomes
The liver is the primary site for phase I (oxidation) and phase II (glucuronidation) enzymatic activity responsible for xenobiotic metabolism. Human liver microsomes are used as in vitro screen of metabolic activity for candidate drugs. Similar studies can be run with microsomes from other species, such as those used for in vivo studies, to determine any significant species differences in the stability profile. The aim of this study was to measure the broad-spectrum metabolic stability of representative compounds of the invention. The key aspects of the experimental design are summarized below: • Human liver microsomes (mixed pool of 15 male and female donors) were purchased from In Vitro Technologies (Baltimore, Md.). • Microsomes characterized for phase I (Cyp2A6, 2D6, 2E1, 1A2, 2C19, 3A4, 4A) and phase II (glucuronidation) enzymatic activity. • Assays are performed using a final concentration of 0.8 mg/mL of microsomes in 100 mM potassium phosphate buffer (1.5 mM NADPH, 8 mM MgCl2, pH 7.4, 37° C.). • Compounds are tested in duplicate samples at a single concentration of 5 μM (0.05% DMSO). • Test articles are incubated with the microsomes at 37° C.

[3] = target: T2, ghrelin receptor (HEK-GHSR1 stable cells) (Homo sapiens, UniProt Q92847); assay: Ghrelin receptor inverse agonist assay (HTRF IP-one), Method B4; type: cell-based; settings: inverse agonist at the ghrelin receptor, Method B4
T2 construct: expressed in transfected cells
T2 sequence (Q92847 whole entry): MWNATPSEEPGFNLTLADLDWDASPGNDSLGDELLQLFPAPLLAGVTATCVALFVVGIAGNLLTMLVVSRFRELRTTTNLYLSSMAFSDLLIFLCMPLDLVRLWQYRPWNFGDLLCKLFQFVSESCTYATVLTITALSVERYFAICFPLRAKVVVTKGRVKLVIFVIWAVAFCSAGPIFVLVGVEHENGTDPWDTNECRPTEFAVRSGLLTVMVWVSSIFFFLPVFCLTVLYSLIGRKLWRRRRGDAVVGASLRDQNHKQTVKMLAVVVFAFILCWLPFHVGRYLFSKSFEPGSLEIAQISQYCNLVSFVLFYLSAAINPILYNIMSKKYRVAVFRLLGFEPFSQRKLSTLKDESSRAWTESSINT
Source text: B4. Ghrelin Receptor Inverse Agonist Assay […]
In addition, the following method can be utilized to assay for inverse agonist activity. (Thomsen, W.; et al. Curr. Opin. Biotechnol. 2005, 16, 655-665; Tozawa-Takahashi F; et al., 11th SBS Annual Conference. September 2005, Geneva; Trinquet, E.; Fink, M.; Bazin, H.; et al. Anal. Biochem. 2006, 358, 126-135; Bergsdorf, C.; Kropp-Goerkis, C.; Kaehler, I.; Ketscher, L.; Boerner, U.; Parczyk, K.; Bader, B. Assay Drug Dev. Technol. 2008, 6, 39-53.)
• 1. Remove culture medium from the plate by inversion. • 2. Add 70 μl of compound/well. • 3. Incubate 30 min at 37° C. • 4. Stop the reaction by adding 15 μl of lysis buffer/well. • 5. Add 15 μl of d2/well. • 6. Add 15 μl of Anti-IP1 cryptate/well. • 7. Incubate 1 h at room temp on an orbital shaker at 100 RPM. • 8. Read the fluorescence in a plate reader (Tecan GeniosPro or similar)
The above sequence was performed using the HTRF IP-one kit (CisBio cat#62P1APEC). For the simultaneous assay of multiple test compounds, 96-well plates can be utilized in this assay (white plate with flat-bottom well, Falcon #353296). These were seeded overnight with 100 000 of HEK-GHSR1 stable cells/well. • Wells A1 and A2 of each plate are used as negative control (wells without d2). Compounds are typically tested in replicate at the following concentrations:
Compounds are stored at 10 mM in 100% DMSO.
1st dilution 1/10 in 100% DMSO (1 mM final concentration).
2nd dilution 1/10 in H2O (0.1 mM final concentration).
Other dilutions are performed in a 96-well plate in stimulation buffer.
The results for representative compounds of the invention are provided in the Examples.

[4] = target: T3, human ghrelin receptor (GRLN, growth hormone secretagogue receptor, hGHS-R1a) (Homo sapiens, UniProt Q92847); assay: Competitive radioligand binding assay (ghrelin receptor), Method B1; settings: Ghrelin receptor binding activity, Method B1
T3 construct: purchased PerkinElmer BioSignal #RBHGHSM, lot#1887; host or cells: HEK-293 cells, stably transfected (membranes)
T3 sequence (Q92847 whole entry): as above
Summary of the method: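 Membranes incubated with compound 30 min at rt in 25 mM Hepes pH 7.4, 1 mM CaCl2, 5 mM MgCl2, 2.5 mM EDTA, 0.4% BSA, max 0.1% DMSO; filtered on PEI-soaked GF/C, washed with cold Tris, scintillation counted. Curves fitted by variable-slope non-linear regression.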

[5] = Pharmacokinetic analysis (intravenous and oral), Method B9; type: in vivo; settings: Table 10b; 2 mg/mL intravenous typically employed
Source text: B9. Pharmacokinetic Analysis
The pharmacokinetic (PK) behavior of compounds of the invention and their pharmaceutical compositions can be ascertained by methods well known to those skilled in the art and can be used to investigate the pharmacokinetic parameters (elimination half-life, total plasma clearance, etc.) for intravenous, subcutaneous and oral administration of these substances. (Wilkinson, G. R. “Pharmacokinetics: The Dynamics of Drug Absorption, Distribution, and Elimination” in Goodman & Gilman's The Pharmacological Basis of Therapeutics, Tenth Edition, Hardman, J. G.; Limbird, L. E., Eds., McGraw Hill, Columbus, Ohio, 2001, Chapter 1.) See also U.S. Pat. Nos. 7,476,653; 7,491,695; Intl. Pat. Appl. WO 2008/033328 and U.S. Patent Appl. Publ. 2008/0194672. As an example, compound 1505 has the PK profile below.
The determination of PK parameters for additional representative compounds of the invention is presented in the Examples.
A detailed analysis of the pharmacokinetic profile of representative compounds of the invention was conducted using the procedures outlined in Method B9.
A dose level of 2 mg/mL for intravenous administration and 8 mg/mL for oral administration were typically employed.

T1 sequence (Q92847 whole entry): as above

SMILES | Antagonist Activity [1] | HLM, metabolic stability in human liver microsomes [2] | IC50 [3] | IC50 [4] | Cl [5] | t1/2 [5]
COc1cccc(C[C@H]2NC(=O)[C@H](C(C)O)N(C)C(=O)[C@H](C(C)C)NCCOc3ccccc3CC[C@@H](C)NC2=O)c1 (stereo partly drawn) [Compound 1371] | B (B = 1-10 nM) | 30.5 μL/min/mg protein |  |  |  | 
CC(C)[C@@H]1NCCOc2ccccc2CC[C@@H](C)NC(=O)[C@@H](Cc2ccc(F)c(F)c2)NC(=O)[C@H](C(C)O)N(C)C1=O (stereo partly drawn) [Compound 1372] | A (A <1 nM) | 60.8 μL/min/mg protein |  |  |  | 
Cc1cccc(C[C@H]2NC(=O)[C@H](C(C)O)N(C)C(=O)[C@H](C(C)C)NCCOc3ccccc3CC[C@@H](C)NC2=O)c1 (stereo partly drawn) [Compound 1373] | A (A <1 nM) | 31 μL/min/mg protein |  |  |  | 
CC(C)[C@@H]1NCCOc2ccccc2CC[C@@H](C)NC(=O)[C@@H](Cc2cccc(C#N)c2)NC(=O)[C@H](C(C)O)N(C)C1=O (stereo partly drawn) [Compound 1374] | B (B = 1-10 nM) | 35.8 μL/min/mg protein |  |  |  | 
CC(C)[C@@H]1NCCOc2c(F)cccc2CCCNC(=O)[C@@H](Cc2ccccc2)NC(=O)[C@H](C(C)O)N(C)C1=O (stereo partly drawn) [Compound 1376] | C (C = 10-100 nM) | 32.2 μL/min/mg protein |  |  |  | 
CC(C)[C@@H]1NCCOc2ccc(F)cc2CCCNC(=O)[C@@H](Cc2ccccc2)NC(=O)[C@H](C(C)O)N(C)C1=O (stereo partly drawn) [Compound 1377] |  | 65.5 μL/min/mg protein |  |  |  | 
CC(C)[C@@H]1NCCOc2cccc(F)c2CCCNC(=O)[C@@H](Cc2ccccc2)NC(=O)[C@H](C(C)O)N(C)C1=O (stereo partly drawn) [Compound 1378] | C (C = 10-100 nM) | 42.9 μL/min/mg protein |  |  |  | 
CC[C@@H]1CCc2ccccc2OCCN[C@@H](C(C)C)C(=O)N(C)[C@@H](C(C)O)C(=O)N[C@H](Cc2ccccc2)C(=O)N1 (stereo partly drawn) [Compound 1393] | B (B = 1-10 nM) | 46.6 μL/min/mg protein |  |  |  | 
CC(C)[C@@H]1NCCOc2ccccc2CC[C@@H](C)NC(=O)[C@@H](Cc2cccc(C(F)(F)F)c2)NC(=O)[C@H](C(C)O)N(C)C1=O (stereo partly drawn) [Compound 1412] |  | 35.4 μL/min/mg protein |  |  |  | 
Cc1cccc(C[C@H]2NC(=O)[C@H](C(C)O)N(C)C(=O)[C@H](C(C)C)NCCOc3cc(F)ccc3CC[C@@H](C)NC2=O)c1 (stereo partly drawn) [Compound 1451] | B (B = 1-10 nM) | 10.4 μL/min/mg protein |  |  |  | 
COc1cccc(C[C@H]2NC(=O)[C@H](C(C)O)N(C)C(=O)[C@H](C(C)C)NCCOc3cc(F)ccc3CC[C@@H](C)NC2=O)c1 (stereo partly drawn) [Compound 1473] |  | 14.2 μL/min/mg protein |  |  |  | 
CC(C)C1NCCOc2cc(F)ccc2C=CCNC(=O)C(Cc2ccc(F)cc2)NC(=O)C(C(C)O)N(C)C1=O (stereo not drawn) [Compound 1690] |  | 21.8 μL/min/mg protein | 50 to 100 nM | 1 to 10 nM |  | 
CC(C)C1NCCOc2ccccc2C#CCNC(=O)C(Cc2cccc(F)c2)NC(=O)C(C(C)O)N(C)C1=O (stereo not drawn) [Compound 1691] |  | 53.7 μL/min/mg protein | 100 to 500 nM | 1 to 10 nM |  | 
CC(C)C1NCCOc2cc(F)ccc2C=CCNC(=O)C(Cc2ccccc2)NC(=O)C(C(C)O)N(C)C1=O (stereo not drawn) [Compound 1702] |  | 14.1 μL/min/mg protein | 50 to 100 nM | 1 to 10 nM |  | 
CCC(C)C1NCCOc2ccccc2C#CCNC(=O)C(Cc2ccc(Cl)cc2)NC(=O)C(C(C)O)N(C)C1=O (stereo not drawn) [Compound 1704] |  | 33.5 μL/min/mg protein | 100 to 500 nM | 10 to 100 nM |  | 
CC[C@@H]1CCc2c(F)cccc2OCCN[C@@H](C(C)C)C(=O)N(C)[C@@H](C(C)O)C(=O)N[C@H](Cc2ccc(F)cc2)C(=O)N1 (stereo partly drawn) [Compound 1723] |  | 64.3 μL/min/mg protein | 100 to 500 nM | 10 to 100 nM |  | 
CC[C@@H]1CCc2c(F)cccc2OCCN[C@@H](C(C)C)C(=O)N(C)[C@@H](C(C)O)C(=O)N[C@H](Cc2c[nH]c3ccccc23)C(=O)N1 (stereo partly drawn) [Compound 1725] |  | 66.5 μL/min/mg protein | 100 to 500 nM | 10 to 100 nM |  | 
CCC(C)C1NCCOc2ccccc2C=CCNC(=O)C(Cc2ccccc2C)NC(=O)C(C(C)O)N(C)C1=O (stereo not drawn) [Compound 1737] |  | 83.9 μL/min/mg protein | 50 to 100 nM | 1 to 10 nM |  | 
CCC(C)C1NCCOc2ccccc2C=CCNC(=O)C(Cc2ccccc2Cl)NC(=O)C(C(C)O)N(C)C1=O (stereo not drawn) [Compound 1738] |  | 53.2 μL/min/mg protein | 10 to 50 nM | 1 to 10 nM |  | 
CC(O)[C@H]1C(=O)N[C@H](Cc2ccc(Cl)cc2)C(=O)N[C@H](C)CCc2ccccc2OCCN[C@@H](C(C)(C)C)C(=O)N1C (stereo partly drawn) [Compound 1742] |  | 157.4 μL/min/mg protein | 10 to 50 nM | 10 to 100 nM |  | 
CC(O)[C@H]1C(=O)N[C@H](Cc2c[nH]c3ccccc23)C(=O)N[C@H](C)CCc2ccccc2OCCN[C@@H](C2CC2)C(=O)N1C (stereo partly drawn) [Compound 1745] |  | 117.0 μL/min/mg protein | 100 to 500 nM | 10 to 100 nM |  | 
CC(C)[C@@H]1NCCOc2cc(F)ccc2CC[C@@H](C)NC(=O)[C@@H](Cc2ccc(Cl)cc2)NC(=O)[C@H](C(C)O)N(C)C1=O (stereo partly drawn) [Compound 1758] |  | 90.4 μL/min/mg protein | 10 to 50 nM | 1 to 10 nM |  | 
CC[C@@H]1C#Cc2ccc(F)cc2OCCN[C@@H](C(C)C)C(=O)N(C)[C@@H](C(C)O)C(=O)N[C@H](Cc2cccc(F)c2)C(=O)N1 (stereo partly drawn) [Compound 1760] |  | 34.8 μL/min/mg protein | 50 to 100 nM | 1 to 10 nM |  | 
CCC1CCc2ccc(F)cc2OCCNC(C(C)C)C(=O)N(C)C(C(C)O)C(=O)NC(Cc2c[nH]c3ccc(F)cc23)C(=O)N1 (stereo not drawn) [Compound 1803] | B (B = 1-10 nM) |  | 10 to 50 nM | 1 to 10 nM | 10 ± 1 mL/min/kg | 1.72 ± 0.217 h
